The values below come from PMC7915588, “Polyphyllin D Shows Anticancer Effect through a Selective Inhibition of Src Homology Region 2-Containing Protein Tyrosine Phosphatase-2 (SHP2)” (Molecules, 2021).

In one assay the target is T1, PTPN18 (PTP-HSCF) (Homo sapiens, UniProt Q99952).
T1 construct: 1-300
T1 sequence (Q99952 1-460): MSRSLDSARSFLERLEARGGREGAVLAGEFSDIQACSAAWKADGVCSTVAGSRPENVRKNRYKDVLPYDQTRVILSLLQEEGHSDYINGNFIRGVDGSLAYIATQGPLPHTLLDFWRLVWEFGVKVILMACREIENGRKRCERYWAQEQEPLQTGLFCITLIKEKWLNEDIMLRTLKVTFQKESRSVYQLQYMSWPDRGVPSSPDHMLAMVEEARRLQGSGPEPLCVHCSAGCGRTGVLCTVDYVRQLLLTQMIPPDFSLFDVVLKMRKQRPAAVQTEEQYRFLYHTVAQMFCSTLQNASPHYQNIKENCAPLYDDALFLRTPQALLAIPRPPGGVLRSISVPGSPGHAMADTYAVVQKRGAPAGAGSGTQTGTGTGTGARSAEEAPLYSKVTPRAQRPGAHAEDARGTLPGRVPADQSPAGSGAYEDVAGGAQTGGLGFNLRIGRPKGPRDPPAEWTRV
Briefly: biochemical. More on the design: Fluorogenic phosphatase assay, DiFMUP hydrolysis by recombinant PTPs, initial velocity, Ex/Em 355/460 nm. To be noted: read-out: Inhibition by 20 µM polyphyllin D (%). As to the method: (§1) Enzymatic reactions were initiated by the addition of SHP2 (final concentration of 10 nM) to a solution of each of the 658 phytochemical compounds (final concentration of 20 µM) in reaction buffer (20 mM bis-tris pH 6.0, 150 mM NaCl, 2.5 mM dithiothreitol, and 0.01% Triton X-100) containing DiFMUP (final concentration of 140 µM). Changes in the fluorescence intensities were measured continuously for 10 min at Ex/Em = 355/460 nm on a VictorTM X4 multilabel plate reader. Enzyme inhibition was estimated by comparing the reaction velocity in the presence of each compound with that in the absence of any compound. Inhibition of the other PTPs was measured in the same way. Next, we established a screening strategy using a DiFMUP substrate to identify a natural product that inhibits SHP2 activity. Initially, we screened 658 compounds at 20 µM using a 96-well plate system (Figure 2A). […] The selected compounds were tested at 20 µM for SHP2 inhibition, and 14 additional non-receptor-type PTPs (PTP1B, TCPTP, PTPH1, STEP, SHP1, HePTP, PTP-MEG2, PTP-PEST, PTP-BAS, PTP36, PTP-HSCF, PTPD1, LYP, and HD-PTP) were used to investigate the inhibition selectivity. The results were visualized using a heat map analysis by GraphPad Prism (Figure 2B and Table S2 in Supplementary Materials). To identify new SHP2 anticancer natural products, we first performed cloning to express SHP2 protein and then purified it. PTPN11 (Gene ID: 5781) encoding human SHP2 (amino acids sequences 1 to 526) with several extra amino acids were cloned into the MBP-pET 28a (+) vector, which was successfully used to overexpress PTPs with enhanced solubility in an Escherichia coli expression system. Information on amino acids for 15 non-receptor-type PTPs including SHP2 is summarized in Table S3 in the Supplementary Materials. SHP2 was overexpressed in RosettaTM (DE3) and purified using a metal affinity resin (Figure S1 in Supplementary Materials). […] The kcat, KM, and kcat/KM values were determined to be 270 min^−1, 70 μM, and 3.9 μM^−1min^−1, respectively, using the Lineweaver–Burk plot analysis (Table S1 in Supplementary Materials).

The next assay has as its target T2, PTPN9 (PTP-MEG2) (Homo sapiens, UniProt P43378).
T2 construct: 277-582
T2 sequence (P43378 1-593): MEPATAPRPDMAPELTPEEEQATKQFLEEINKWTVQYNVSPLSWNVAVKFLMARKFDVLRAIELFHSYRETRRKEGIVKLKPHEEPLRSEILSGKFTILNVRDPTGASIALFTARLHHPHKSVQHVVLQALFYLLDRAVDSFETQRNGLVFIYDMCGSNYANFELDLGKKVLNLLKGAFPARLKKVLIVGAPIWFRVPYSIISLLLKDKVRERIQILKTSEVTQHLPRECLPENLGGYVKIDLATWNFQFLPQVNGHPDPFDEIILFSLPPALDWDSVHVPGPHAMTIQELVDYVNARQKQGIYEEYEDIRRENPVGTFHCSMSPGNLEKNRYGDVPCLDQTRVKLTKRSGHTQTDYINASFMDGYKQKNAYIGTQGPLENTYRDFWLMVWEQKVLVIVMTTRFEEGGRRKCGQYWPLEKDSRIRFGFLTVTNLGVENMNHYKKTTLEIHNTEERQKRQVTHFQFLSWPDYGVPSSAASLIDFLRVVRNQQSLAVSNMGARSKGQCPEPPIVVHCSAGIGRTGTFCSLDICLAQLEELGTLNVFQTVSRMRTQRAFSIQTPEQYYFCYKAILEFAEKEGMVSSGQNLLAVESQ
Briefly: biochemical. Set-up: Fluorogenic phosphatase assay, DiFMUP hydrolysis by recombinant PTPs, initial velocity, Ex/Em 355/460 nm. As to conditions: read-out: Inhibition by 20 µM polyphyllin D (%). Here is the method:
as §1

Take `C[C@@H]1CC[C@@]2(OC1)O[C@H]1C[C@H]3[C@@H]4CC=C5C[C@@H](O[C@@H]6O[C@H](CO)[C@@H](O[C@@H]7O[C@@H](CO)[C@H](O)[C@H]7O)[C@H](O)[C@H]6O[C@@H]6O[C@@H](C)[C@H](O)[C@@H](O)[C@H]6O)CC[C@]5(C)[C@H]4CC[C@]3(C)[C@H]1[C@@H]2C` [polyphyllin D]: the figures for the inhibition at 20 µM at PTPN18 (PTP-HSCF) and at PTPN9 (PTP-MEG2) were 14.2% and 0%, respectively.

As usually defined, the inhibition is the drop in the measured response relative to a control, in per cent.
